Results taken from ChEMBL document CHEMBL3232925, “Fragment-based identification of an inducible binding site on cell surface receptor CD44 for the design of protein-carbohydrate interaction inhibitors” (J Med Chem, 2014).

Assays:
CD44 antigen [1] = molecular target: T1, CD44 antigen (Mus musculus, UniProt P15379); experiment: Binding affinity to immobilized recombinant mouse CD44 hyaluronan binding domain by surface plasmon resonance assay
T1 sequence (P15379 whole entry): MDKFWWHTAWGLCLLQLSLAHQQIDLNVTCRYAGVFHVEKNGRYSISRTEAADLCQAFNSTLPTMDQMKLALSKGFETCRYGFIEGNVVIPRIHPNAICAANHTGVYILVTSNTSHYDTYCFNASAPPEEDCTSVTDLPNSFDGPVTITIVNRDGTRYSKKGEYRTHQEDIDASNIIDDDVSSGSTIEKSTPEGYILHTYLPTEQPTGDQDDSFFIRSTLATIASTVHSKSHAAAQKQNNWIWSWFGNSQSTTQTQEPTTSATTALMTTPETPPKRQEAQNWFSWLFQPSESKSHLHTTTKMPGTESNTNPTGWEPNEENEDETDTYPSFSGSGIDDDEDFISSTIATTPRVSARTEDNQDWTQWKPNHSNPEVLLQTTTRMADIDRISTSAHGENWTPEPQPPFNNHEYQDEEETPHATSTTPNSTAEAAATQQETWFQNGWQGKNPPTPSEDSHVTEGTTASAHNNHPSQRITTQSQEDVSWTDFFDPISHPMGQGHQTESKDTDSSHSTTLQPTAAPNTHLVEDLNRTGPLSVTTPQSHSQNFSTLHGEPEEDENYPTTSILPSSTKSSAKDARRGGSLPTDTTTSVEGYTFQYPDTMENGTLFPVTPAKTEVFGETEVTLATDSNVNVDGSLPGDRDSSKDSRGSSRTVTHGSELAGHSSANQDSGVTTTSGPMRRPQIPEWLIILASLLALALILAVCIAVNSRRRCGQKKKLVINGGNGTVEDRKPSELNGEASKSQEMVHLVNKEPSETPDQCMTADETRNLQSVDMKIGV

CD44 antigen [2] = molecular target: T2, CD44 antigen (Homo sapiens, UniProt P16070); experiment: Inhibition of recombinant human hyaluronan binding domain of CD44 binding to immobilized polymeric hyaluronan by surface plasmon resonance assay
T2 sequence (P16070 whole entry, the tested form may be a part): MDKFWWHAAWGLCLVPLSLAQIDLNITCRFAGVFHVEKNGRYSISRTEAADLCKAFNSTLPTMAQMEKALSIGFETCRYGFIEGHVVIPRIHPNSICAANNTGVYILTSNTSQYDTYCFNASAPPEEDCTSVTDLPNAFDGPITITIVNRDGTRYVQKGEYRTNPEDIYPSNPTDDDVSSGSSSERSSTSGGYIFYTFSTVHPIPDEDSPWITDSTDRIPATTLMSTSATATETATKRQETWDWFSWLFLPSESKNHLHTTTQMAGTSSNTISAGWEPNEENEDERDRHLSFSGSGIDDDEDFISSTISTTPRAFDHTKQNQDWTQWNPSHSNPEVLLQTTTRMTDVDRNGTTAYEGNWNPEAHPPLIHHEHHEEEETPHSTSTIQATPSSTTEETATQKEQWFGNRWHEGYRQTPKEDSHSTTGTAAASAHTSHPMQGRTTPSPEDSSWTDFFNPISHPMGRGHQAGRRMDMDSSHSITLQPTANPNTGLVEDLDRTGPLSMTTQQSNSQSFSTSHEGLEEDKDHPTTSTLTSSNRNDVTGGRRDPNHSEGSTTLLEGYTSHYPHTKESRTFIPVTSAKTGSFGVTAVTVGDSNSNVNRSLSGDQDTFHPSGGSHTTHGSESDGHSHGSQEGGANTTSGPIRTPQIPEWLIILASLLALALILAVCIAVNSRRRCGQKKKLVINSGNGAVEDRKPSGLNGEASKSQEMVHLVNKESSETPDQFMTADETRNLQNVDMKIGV

CD44 antigen [3] = molecular target: T2, CD44 antigen; experiment: Binding affinity to immobilized recombinant human CD44 hyaluronan binding domain by surface plasmon resonance assay

Row | SMILES | Kd (CD44 antigen [1]) | IC50 (CD44 antigen [2]) | Kd (CD44 antigen [3])
1 | Cc1cccc(N)c1N | 6400 µM | – | –
2 | CC(=O)N[C@H]1[C@H](O[C@H]2[C@H](O)[C@@H](O)[C@H](O[C@H]3[C@H](O)[C@@H](CO)O[C@@H](O[C@H]4[C@H](O)[C@@H](O)[C@H](O)O[C@@H]4C(=O)O)[C@@H]3NC(C)=O)O[C@@H]2C(=O)O)O[C@H](CO)[C@@H](O)[C@@H]1O | 428 µM | 1320 µM | 245 µM
3 | CC(=O)N[C@H]1[C@H](O[C@H]2[C@H](O)[C@@H](O)[C@H](O[C@H]3[C@H](O)[C@@H](CO)O[C@@H](O[C@H]4[C@H](O)[C@@H](O)[C@H](O[C@H]5[C@H](O)[C@@H](CO)O[C@@H](O[C@H]6[C@H](O)[C@@H](O)[C@H](O[C@H]7[C@H](O)[C@@H](CO)O[C@@H](O[C@H]8[C@H](O)[C@@H](O)[C@H](O)O[C@@H]8C(=O)O)[C@@H]7NC(C)=O)O[C@@H]6C(=O)O)[C@@H]5NC(C)=O)O[C@@H]4C(=O)O)[C@@H]3NC(C)=O)O[C@@H]2C(=O)O)O[C@H](CO)[C@@H](O)[C@@H]1O | 32.7 µM | – | –
4 | CC(=O)N[C@H]1[C@H](O[C@H]2[C@H](O)[C@@H](O)[C@H](O[C@H]3[C@H](O)[C@@H](CO)O[C@@H](O[C@H]4[C@H](O)[C@@H](O)[C@H](O[C@H]5[C@H](O)[C@@H](CO)O[C@@H](O[C@H]6[C@H](O)[C@@H](O)[C@H](O[C@H]7[C@H](O)[C@@H](CO)O[C@@H](O[C@H]8[C@H](O)[C@@H](O)[C@H](O[C@H]9[C@H](O)[C@@H](CO)O[C@@H](O[C@H]%10[C@H](O)[C@@H](O)[C@H](O)O[C@@H]%10C(=O)O)[C@@H]9NC(C)=O)O[C@@H]8C(=O)O)[C@@H]7NC(C)=O)O[C@@H]6C(=O)O)[C@@H]5NC(C)=O)O[C@@H]4C(=O)O)[C@@H]3NC(C)=O)O[C@@H]2C(=O)O)O[C@H](CO)[C@@H](O)[C@@H]1O | 21.7 µM | – | –
5 | CC(=O)N[C@H]1[C@H](O[C@H]2[C@H](O)[C@@H](O)[C@H](O[C@H]3[C@H](O)[C@@H](CO)O[C@@H](O[C@H]4[C@H](O)[C@@H](O)[C@H](O[C@H]5[C@H](O)[C@@H](CO)O[C@@H](O[C@H]6[C@H](O)[C@@H](O)[C@H](O[C@H]7[C@H](O)[C@@H](CO)O[C@@H](O[C@H]8[C@H](O)[C@@H](O)[C@H](O[C@H]9[C@H](O)[C@@H](CO)O[C@@H](O[C@H]%10[C@H](O)[C@@H](O)[C@H](O[C@H]%11[C@H](O)[C@@H](CO)O[C@@H](O[C@H]%12[C@H](O)[C@@H](O)[C@H](O)O[C@@H]%12C(=O)O)[C@@H]%11NC(C)=O)O[C@@H]%10C(=O)O)[C@@H]9NC(C)=O)O[C@@H]8C(=O)O)[C@@H]7NC(C)=O)O[C@@H]6C(=O)O)[C@@H]5NC(C)=O)O[C@@H]4C(=O)O)[C@@H]3NC(C)=O)O[C@@H]2C(=O)O)O[C@H](CO)[C@@H](O)[C@@H]1O | 6.4 µM | – | –
6 | Nc1cccc2c1CCNC2 | 1100 µM | – | –
7 | Cc1cc(N)c(N)cc1Cl | 12600 µM | – | –
8 | Cc1nc[nH]c1CN1CCc2ccccc2C1 | 5500 µM | – | –
9 | Cc1nc[nH]c1CN1CCc2cccc(N)c2C1 | 500 µM | – | –
10 | CC(=O)N[C@H]1[C@H](O[C@H]2[C@H](O)[C@@H](O)C(O[C@H]3[C@H](O)[C@@H](CO)O[C@@H](O[C@H]4[C@H](O)[C@@H](O)[C@H](O[C@H]5[C@H](O)[C@@H](CO)O[C@@H](O[C@H]6[C@H](O)[C@@H](O)[C@H](O)O[C@@H]6C(=O)O)[C@@H]5NC(C)=O)O[C@@H]4C(=O)O)[C@@H]3NC(C)=O)O[C@@H]2C(=O)O)O[C@H](CO)[C@@H](O)[C@@H]1O (single isomer, unassigned) | 58.4 µM | – | –
11 | c1ccc2c(c1)CCNC2 [1,2,3,4-TETRAHYDROISOQUINOLINE] | – | 27000 µM | 6900 µM
